US20250129334A1, “LINEAGE SPECIFICATION DURING STEM CELL TRANSITION” (Amniotics AB, priority 2021, published 2025)

What was measured:
HE cells [1] = experiment: Single-cell RNAseq of treated HE cells at day 2 of subculture; type: cell-based, human
Experimental: Sorted HE, EHT and HSC-like cells as well magnetically selected (Miltenyi Biotec) cord blood CD34^+ cells were plated onto Matrigel (16 μg/cm^2, Corning)-coated 96-well flat bottom plates in HE medium (Ditadi, A. & Sturgeon, C. M. Directed differentiation of definitive hemogenic endothelium and hematopoietic progenitors from human pluripotent stem cells. Methods 101, 65-72 (2016)) with 1% penicillin-streptomycin and kept in a humidified incubator at 37° C., 5% CO2, 4% O2 overnight. The following day (day 0), wells were washed twice with PBS and fresh HE medium was added, together with UK5099 (10 μM) or DCA (3 mM), where indicated. On day 1 and 2 (as indicated), cells were washed twice with PBS 0.04% UltraPure BSA and collected after a 2-minute incubation at 37° C. with StemPro Accutase Cell Dissociation Reagent. Cells were spun down, resuspended in PBS 0.04% UltraPure BSA, counted (yield between 8,000-18,000 cells) and library preparation was conducted according to the Chromium Single Cell 3′ Reagent kit v3 instructions (10× Genomics). Sequencing was performed on a NOVASeq 6000 from Illumina with the run parameters (28-8-0-91) recommended by 10× Genomics with a final loading concentration of 300 pM of the pooled libraries. Human Umbilical Cord Blood samples were collected from Skine University Hospital (Lund and Malmo) and Helsingborg Hospital with informed consents according to guidelines approved by the regional ethical committee.
The data was processed and analyzed using Seurat v3.1.0, where cells were allowed to have up to 20% mitochondrial reads prior to log-normalization and finding the top 500 variable genes using the “vst” method. Cell cycle scores were calculated and the data was scaled regressing on mitochondrial content and the difference of the S and G2M score. Principal components were calculated prior to calculating a UMAP. Pseudotime trajectories describing two developmental routes were identified in our EHT dataset using Slingshot (Street, K. et al. Slingshot: cell lineage and pseudotime inference for single-cell transcriptomics. BMC Genomics 19,477 (2018)) along which the cells were ordered. The cells were then binned along each trajectory where the cell type composition of each bin was calculated as percentages. Cord blood CD34+ cells were mapped to our data and labeled using scCoGAPS (Stein-O'Brien, G. L. et al. Decomposing Cell Identity for Transfer Learning across 23 Cellular Measurements, Platforms, Tissues, and Species. Cell Syst 8, 395-411.e8 (2019)). CS13 data from Zeng et al. (Zeng, Y. et al. Tracing the first hematopoietic stem cell generation in human embryo by single-cell RNA sequencing. Cell Res 1-14 (2019)) was read and processed to make a UMAP from which the cells they name as “AEC” and “Hem” were identified. These 99 cells were mapped to our data and labeled using SCMAP59. Carnegie Stage 13 data from Zeng et al. was mapped to our EHT dataset using scCoGAPS where 10 patterns were identified, named according to their respective weights (as shown in Table 1) and then projected using projectR. […] The CS 13 dorsal aorta dataset from Zeng et al. was mapped onto our EHT dataset using scCoGAPS. The patterns resulting from this analysis were classified as the cell types described by Zeng et al.
Each cell was assigned to the group that achieved the highest weight. […]

HE cells [2] = experiment: Colony forming unit assay of subcultured HE cells; type: cell-based, human
Experimental: Subcultured HE cells were treated with StemPro Accutase Cell Dissociation Reagent for 2 minutes at 37° C. and dissociated cells were resuspended in 3 ml Methocult H4230 (STEMCELL Technologies, France) (prepared according to manufacturer's instructions, with 20 mL Iscove's Modified Dulbecco's Medium containing 2.5 μg hSCF, 5 μg GM-CSF, 2.5 μg IL-3 and 500 U EPO). Each mixture was divided onto 2 wells of a non-tissue culture treated 6-well plate. Following a 12-day incubation in a humidified incubator at 37° C., 5% CO2, 20% O2, colonies were morphologically distinguished and scored. For globin analysis, colonies in Methocult wells were harvested with PBS, washed thoroughly and frozen in RLT buffer with β-mercaptoethanol. Following RNA extraction and RT (Qiagen), gene expression was assessed with taqman probes by q-PCR. The taqman probes used for this assay are HBA1/2 (Hs00361191_g1), HBE1 (Hs00362216_m1), HBG2/1 (Hs00361131_g1) and KLF1 (Hs00610592_m1).

O=C(O)C(Cl)Cl [DCA, dichloroacetate]
less treated HE cells in cluster 7 compared to the control (HE cells [1]; day 2, DCA 3 mM): 35% | ratio of CFU-E colonies to the sum of CFU-G, CFU-GM and CFU-M colonies, lower than control (HE cells [2]; 6 days subculture, DCA 3 mM): more than 3 fold

N#CC(=Cc1cn(-c2ccccc2)c2ccccc12)C(=O)O [UK5099, 2-Cyano-3-(1-phenyl-1H-indol-3-yl)-2-propenoic acid]
LSD1, GFI1 and GFI1B expression (HE cells [1]; as compared to DCA-treated cells): higher levels | average expression levels of erythroid lineage genes (RYK, KLF3, TAL1, GATA2, ZFPM1, KLF1, NFE2, ANK1, HBQ1) (HE cells [1]; clusters 6 and 7): higher | percentage of cells in cluster 6 (HE cells [1]; day 2): constant between conditions | more treated HE cells in cluster 7 compared to the control (HE cells [1]; day 2, UK5099 10 μM): 38% | granulocyte and macrophage colonies (CFU-G, GM and M) (HE cells [2]; 3 or 6 days of UK5099): decreased | ratio of CFU-E colonies to the sum of CFU-G, CFU-GM and CFU-M colonies, higher than control (HE cells [2]; 6 days subculture, UK5099 10 μM): 20 fold | erythroid colony (CFU-E) formation (HE cells [2]; UK5099 3 or 6 days, DCA 6-day treatment, vs untreated): significantly increased
